The values that follow come from patent US20240212786A1, “METHOD OF DISCOVERING NOVEL ANTICANCER DRUG USING CO-ESSENTIALITY NETWORK, AND AN APPARATUS THEREOF” (POSTECH RESEARCH AND BUSINESS DEVELOPMENT FOUNDATION, priority 2022, published 2024).

Counter-ions that a name gives are not always drawn.

Experiment [1] deals with cancer cell lines of COADREAD
To be noted: median over COADREAD cancer cell lines, PRISM secondary screen data; cited from earlier work.

Experiment [2] deals with COADREAD differential gene expression; 15 large intestine cancer cell lines. As to the kind of experiment: Reversal gene expression (RGE) effect from CMap L1000 profiles. Format: cell-based. From the text:
To estimate the efficacy of the drug by altering the gene expression to be a reversal of that in cancer conditions, the present inventors used the L1000 dataset from CMap[9]. From the L1000 dataset, the present inventors obtained 6,056 compounds with PubChem IDs and expression profiles for 978 genes directly measured in 15 cancer cell lines whose primary site was the large intestine: CL34, HCT116, HELA, HT115, HT29, LOVO, MDST8, NCIH508, NCIH716, RKO, SNU1040, SNUC5, SW480, SW620, and SW948. The present inventors initially computed the RGE effect between the differential gene expression of COADREAD (obtained via CREEDS[10], signature ID: dz552) and the compound's transcriptional profile using Zhang's connection score, that is, the absolute value of the anti-correlated, standardized ranked connection score. Since drugs have multiple transcriptional profiles for each cell line depending on the treatment dose and time, the present inventors calculated the max RGE effect for each cell line and used the median RGE effect across cell lines as a representative value. Finally, the performance of the network in predicting the drug's RGE effect was measured using the Spearman correlation coefficient between the TC score and the RGE effect of drugs that exist in both PanDrugs and CMap.

The subject of experiment [3] is SK-HEP-1 cells. Kind of experiment: MTS cell viability assay, SK-HEP-1. The class given is cell-based. The note with it: Homo sapiens, SK-HEP1, 72 h. How it is done:
(§1) The human LIHC cell lines SNU398, SK-HEP-1, and Huh7 were obtained from the Korean Cell Line Bank (Scoul, Korea), and HepG2 cells were obtained from the American Type Culture Collection (Manassas, VA, USA). SNU398 and Huh7 were cultured in Roswell Park Memorial Institute (RPMI) 1640 medium (Welgene) supplemented with 10% fetal bovine serum (FBS, Merck), 100 IU/mL penicillin, and 100 μg/mL streptomycin (Welgene). SK-HEP-1 and HepG2 were maintained in Eagle's Minimum Essential medium (EMEM, Lonza) supplemented with 10% FBS. All cells were incubated at 37° C. in a humidified incubator with 5% CO2.
(§2) To assess cell viability, SNU398, SK-HEP-1, Huh7, and HepG2 cells were plated in 96-well plates at a density of 8×10^3 or 1×10^4 cells per well. […] After incubation for 72 h, cell viability was determined using the phenazine methosulfate (PMS)/3-(4,5-dimethylthiazol-2-yl)-5-(3-carboxymethoxyphenyl)-2-(4-sulfophenyl)-2H-tetrazolium, inner salt (MTS) assay using the Cell Titer 96 Aqueous Non-Radioactive Cell Proliferation Assay kit (Promega, Madison, WI, USA) according to the manufacturer's instructions. The absorbance at 490 nm was measured using a microplate reader (Multiskan SkyHigh Microplate Spectrophotometer, Thermo Scientific). IC50 values were calculated from dose-response curves using GraphPad Prism 9 (GraphPad Software).
For orientation: Formazan colour is commonly taken as a measure of viable cells.

Experiment [4] relates to HepG2 cells. Kind of experiment: MTS cell viability assay, HepG2. Format: cell-based. The note with it: Homo sapiens, 72 h. How it is done: as §1, §2
For experiment [5], the system named is SNU398 cells. Kind of experiment: MTS cell viability assay, SNU398. To be noted: Homo sapiens, SNU-398, 72 h. The class given is cell-based. The protocol:
as §1, §2

Experiment [6] relates to Huh7 cells. As to the kind of experiment: MTS cell viability assay, Huh7. The note with it: Homo sapiens, Huh-7, 72 h. Format: cell-based. How it is done:
as §1, §2

For orientation: IC50 means the concentration needed to halve the response being measured. With `Cn1c(=O)c(F)c(Nc2ccc(I)cc2F)c2c(=O)n(C[C@@H](O)CO)cnc21` [TAK-733], the IC50 in experiment [1] is 1.03 nM. In addition, in experiment [2] (COADREAD), the “rank percentile of RGE effect” value worked out at 91.18%. In experiment [2] (median across cell lines of max RGE effect, Zhang's connection score, COADREAD signature), the RGE effect was 0.123.
As to `CC(C)C[C@H](NC(=O)CNC(=O)c1cc(Cl)ccc1Cl)B1OC(=O)C(CC(=O)O)(CC(=O)O)O1` [ixazomib citrate], the IC50 worked out at 270 nM in experiment [3], 197 nM in experiment [4], 746 nM in experiment [5] and 137 nM in experiment [6].
